Experimental data: patent publication US12655131B2, “Pyrazinecarboxamide analog compounds for use in treating cancer” (NOVAPANO, LLC, priority 2019, dated 2026)

What was measured:
[1] = Microsome stability, rat liver microsomes; type: in vitro ADME; conditions: NADPH, 37 °C, pH 7.4, read-out: rLM CLint (μg/min/mg)
Method: (§1) In a 96 deep well plate, 2.5 μL of 20 μM of each test compound in potassium phosphate buffer (pH 7,4) with 2% 1:9 DMSO:acetonitrile were added to 5 μL of 5 mg/mL microsomes (human liver microsomes (hLM), rat liver microsomes (rLM), or mouse liver microsomes (mLM)) and 37.5 μL of 100 mM prewarmed phosphate buffer (pH 7.4). Time point 0 (T0) samples were immediately quenched with 200 μL of chilled acetonitrile containing 50 ng/mL of internal standard. 5 4, of 10 mM NADPH was added to all other samples to start the reaction. The plate was incubated in a reciprocating water bath at 37 ° C. on 50 rpm for the duration of the assay. The remaining samples were quenched with 200 μL of chilled acetonitrile containing 50 ng/mL of internal standard at various timepoints. The samples were analyzed by LC-MS/MS (Sciex API 4500 QTrap). The % remaining, terminal elimination rate constant (K), half-life (t1/2), and intrinsic clearance (CLint) were calculated.

[2] = test system: HCT 116 colorectal carcinoma cells; experiment: Cell proliferation assay (resazurin) in HCT 116 cells; type: cell-based; conditions: Homo sapiens, 72 hr compound incubation, inhibition of proliferation
Method: (§2) HCT 116 colorectal carcinoma cells (ECACC/Sigma-Aldrich #91091005) were seeded in medium (McCoy's 5a+10% FBS) at a cell count of 1500 cells per 100 μL per well in a 96 well edge plate (ThermoFisher #167425). Cells were cultured at 37° C. for 24 hr in 5% CO2 environment (culture conditions) in a Nuaire incubator (humidified). Serially diluted test compounds (100 μL) within the desired testing concentration range (e.g., 0.014-30 μM) were added to the culture plate and the cells were further incubated in culture conditions for 72 hr. The experiment was terminated at the designated incubation time by replacing the medium with 100 μL, of 1 mM resazurin (Sigma-Aldrich #R7017) prepared in culture medium, and the plates were further incubated in culture conditions for 4-6 hr. Fluorescence was recorded using a multimodal plate reader (Biotek Synergy Neo) at an excitation wavelength of 535 nm and emission wavelength of 590 nm to obtain relative fluorescence units.
(§3) Data were analyzed as follows: the background fluorescence (blank containing only medium) value was subtracted from each reading and normalized with the vehicle control ([…]treated cells) to obtain percent survival/proliferation. Percent survival was subtracted from 100 to get the percent inhibition of proliferation which was used to calculate IC50 values.

[3] = test system: MIA PaCa-2 human pancreatic carcinoma cells; experiment: Cell proliferation assay (resazurin) in MIA PaCa-2 cells; type: cell-based; conditions: 96 hr compound incubation, inhibition of proliferation
Method: as §2, §3
Testing in MIA PaCa-2 human pancreatic carcinoma cells (ATCC® CRL-1420™) was done identically, except that the medium used was DMFM+10% FBS+2.5% horse serum, the cells were seeded at a cell count of 3000 cells per 100 μL per well and the test compound incubation time was 72 or 96 hr. The potency of compounds in other cell lines may be determined in an analogous manner.

[4] = Microsome stability, mouse liver microsomes; type: in vitro ADME; conditions: NADPH, 37 °C, pH 7.4, read-out: mLM CLint (μg/min/mg)
Method: as §1

[5] = Microsome stability, human liver microsomes; type: in vitro ADME; conditions: NADPH, 37 °C, pH 7.4, read-out: hLM CLint (μg/min/mg)
Method: as §1

| microsomal CLint at 1 µM [1] [µL/min/mg] | IC50 [2] [µM] | IC50 [3] [µM] | microsomal CLint at 1 µM [4] [µL/min/mg] | microsomal CLint at 1 µM [5] [µL/min/mg] | Structure (SMILES) |
| --- | --- | --- | --- | --- | --- |
| 201 | 16.3 | 30.9 | 176 | 258 | Nc1nc(NCc2ccc(I)cc2)c(Cl)nc1C(=O)NCCN1CCN(Cc2ccccc2)CC1 [Compound 1, 3-amino-N-(2-(4-benzylpiperazin-1-yl)ethyl)-6-chloro-5-(4-iodobenzylamino) pyrazine-2-carboxamide] |
| 29 | 0.69 | 1.9 | 67 | 52 | N/C(=N\C(=O)c1nc(Cl)c(NCc2ccc(I)cc2)nc1N)NCC1CCN(CCc2ccccc2)CC1 [Compound 51, 3-amino-N-(amino(((1-phenethylpiperidin-1-yl)methyl)amino)methylene)-6-chloro-5-((4-iodobenzyl)amino)pyrazine-2-carboxamide] |
| 49 | 1.33 | 2.92 | 81 | 20 | N/C(=N\C(=O)c1nc(Cl)c(NCc2ccc(I)cc2)nc1N)NCCCOc1ccc(Cl)cc1 [Compound 52, 3-amino-4-(amino(3-(4-chlorophenoxy)propylamino)methylene)-6-chloro-5-(4-iodobenzylamino)pyrazine-2-carboxamide] |
